# Data: PMC11384632, “Protease-activated CendR peptides targeting tenascin-C: mitigating off-target tissue accumulation” (Drug Delivery and Translational Research, 2024)
# Peptide text beside a SMILES is read from it. * marks the point of attachment. 5FAM = O=C1OC2(c3ccc(O)cc3Oc3cc(O)ccc32)c2ccc(C(=O)*)cc21; Ahx = NCCCCCC(=O)O
# Tested on: orthotopic WT-GBM-bearing nude mice
# Test: Biodistribution of monomeric FAM-labeled peptides in WT-GBM mice (anti-FAM DAB immunohistochemistry)
# Assay type: in vivo
# Conditions: 200 µg i.v., 1 h circulation, perfused, anti-FAM DAB staining, qualitative, n = 3, Fig. 6d
# Description: Whereas polyvalent targeting systems, such as bacteriophages and AgNPs used in previous sections, exploit multivalent interactions to enhance specificity and binding efficiency, monovalent targeting systems rely on single ligand-receptor interactions for targeted drug delivery. The choice between these two approaches depends on affinity of the targeting ligand and the pharmacokinetic properties of the therapeutic agent. We next studied in vivo biodistribution of monomeric FAM-labeled SKLG, PL3, and scrambled PL3 control (scrPL3) peptides in WT-GBM tumor-bearing mice. The mice were dosed with FAM-labeled peptides followed by perfusion, tissue collection, sectioning, and detection of the peptides using immunohistochemistry with anti-FAM antibodies.
# Fig. 6 Biodistribution of monomeric FAM-labeled peptides in WT-GBM mice. Orthotopic GBM-bearing nude mice were i.v. injected with FAM-labeled scrambled PL3 control (scrPL3), PL3 or SKLG peptides. After 1 h of circulation the mice were anesthetized and perfused. Organs were harvested, sectioned, and parallel sections were immunostained with hematoxylin & eosin (H&E) staining or anti-FAM 3, 3'-diaminobenzidine (DAB) staining. (a) H&E of WT-GBM tumor-bearing brain tissue sections. (b) DAB staining of WT-GBM tumor region in the brain. (c) H&E staining of lung tissue sections. (d) DAB staining of lung tissue sections. […]
compound,measurement,value
CC(C)C[C@H](NC(=O)[C@H](CCCNC(=N)N)NC(=O)CNC(=O)[C@H](CCCNC(=N)N)NC(=O)CNC(=O)[C@H](C)NC(=O)[C@H](CCCNC(=N)N)NC(=O)CCCCCNC(=O)c1ccc2c(c1)C(=O)OC21c2ccc(O)cc2Oc2cc(O)ccc21)C(=O)N[C@H](C(=O)O)C(C)C [scrPL3] ({5FAM-Ahx}-RAGRGRLV-OH),accumulation of FAM-labeled peptide in pulmonary tissue,only a background signal
